Measurements taken from US20190388494A1, “THERAPEUTIC COMBINATIONS FOR THE TREATMENT OF BACTERIAL INFECTIONS” (SETLANCE S.R.L., priority 2017, published 2019).
Converted amounts (≈) assume the structure as drawn. Read-outs that look alike come from different tables or passages of the source.

What was measured:
A. baumannii VA566/00 [1] = assay: Antimicrobial activity in combination, checkerboard method; assay type: cell-based, Acinetobacter baumannii; settings: for MIC in combination, ATB: antimicrobial agent in combination with SET-M33
Method: (§1) Activity of SET-M33 and antibiotics was evaluated on six well characterized clinical strains. The strains were selected according to their resistance phenotypes and genotypes.
(§2) Antimicrobial activity in combination was evaluated, in duplicate for each of the six strains, with the checkerboard method using cation-adjusted Mueller-Hinton broth (MHB) in 96-well microtiter plates (Sarstedt, Inc., Newton, N.C.). Assays were performed using a final bacterial inoculum of 5×10^4 CFU/well in a final volume of 100 μl. Results were recorded after 20 h of incubation at 35° C. The total fractional inhibitory concentration (ΣFIC) for each antibiotic combination was calculated according to EUCAST definitive document E.Def 1.2 [16] as follows: ΣFIC equals FIC of agent A plus FIC of agent B, where the FIC of agent A or B is the MIC of agent A or B in the presence of the other divided by the MIC of agent A or B alone. Results were interpreted according to the following definition: a ΣFIC of ≤0.5 indicated synergism, a ΣFIC of >0.5 to 1 indicated additivity, a ΣFIC of >1 to <2 indicated indifference, and a ΣFIC of ≥2 antagonism.

A. baumannii N50 [2] = assay: as above; assay type: cell-based, Acinetobacter baumannii; settings: for MIC in combination, ATB: antimicrobial agent in combination with SET-M33
Method: as §1, §2

[3] = system: 6 MDR/XDR Gram-negative strains; assay type: cell-based
Method: as §1
(§3) MICs were determined using a standard broth microdilution assay according to the guidelines of the Clinical and Laboratory Standards Institute.

P. aeruginosa 854 [4] = assay: microbe, parasite or virus in culture; assay type: cell-based, Pseudomonas aeruginosa
Method: as §1, §3

K. pneumoniae 044-R [5] = assay: Antimicrobial activity in combination, checkerboard method; assay type: cell-based, Klebsiella pneumoniae; settings: for MIC in combination, ATB: antimicrobial agent in combination with SET-M33
Method: as §1, §2

K. pneumoniae KKBO-4 [6] = assay: as above; assay type: cell-based, Klebsiella pneumoniae; settings: for MIC in combination, ATB: antimicrobial agent in combination with SET-M33
Method: as §1, §2

P. aeruginosa 854 [7] = assay: as above; assay type: cell-based, Pseudomonas aeruginosa; settings: for MIC in combination, ATB: antimicrobial agent in combination with SET-M33
Method: as §1, §2

P. aeruginosa AV65 [8] = assay: as above; assay type: cell-based, Pseudomonas aeruginosa; settings: for MIC in combination, ATB: antimicrobial agent in combination with SET-M33
Method: as §1, §2

[9] = system: 6 MDR/XDR Gram-negative strains; assay: Checkerboard combination testing, summary over the six strains; assay type: cell-based
Method: as §1, §2

A. baumannii VA566/00 [10] = assay: MIC, standard broth microdilution; assay type: cell-based; settings: Acinetobacter baumannii
Method: as §1, §3

P. aeruginosa AV65 [11] = assay: MIC, standard broth microdilution; assay type: cell-based; settings: Pseudomonas aeruginosa
Method: as §1, §3

A. baumannii N50 [12] = assay: microbe, parasite or virus in culture; assay type: cell-based; settings: Acinetobacter baumannii
Method: as §1, §3

K. pneumoniae 044-R [13] = assay: microbe, parasite or virus in culture; assay type: cell-based; settings: Klebsiella pneumoniae; agent alone; K. pneumoniae 044-R (XDR, KPC, colR)
Method: as §1, §3

K. pneumoniae KKBO-4 [14] = assay: microbe, parasite or virus in culture; assay type: cell-based; settings: Klebsiella pneumoniae, KKBO4
Method: as §1, §3

[15] = SET-M33 in combination with aztreonam
[16] = SET-M33 in combination with meropenem
[17] = SET-M33 in combination with rifampin
[18] = SET-M33 in combination with tobramycin
[19] = agent alone, K. pneumoniae KKBO-4 (XDR, KPC, colR), read-out: MIC
[20] = Pseudomonas aeruginosa, agent alone, P. aeruginosa 854 (XDR, VIM-1), read-out: MIC
[21] = agent alone, A. baumannii N50 (MDR, OXA-24, colR), read-out: MIC

In the case of CC[C@H](C)[C@H](NC(=O)[C@H](CCCCN)NC(=O)[C@@H](N)CCCCN)C(=O)N[C@@H](CCCNC(=N)N)C(=O)N[C@H](C(=O)N[C@@H](CCCNC(=N)N)C(=O)N[C@@H](CC(C)C)C(=O)N[C@@H](CO)C(=O)N[C@@H](C)C(=O)O)C(C)C (stereo in doubt) [SET-M33], the “MIC in combination, SET-M33” value (A. baumannii VA566/00 [1]; [15]) is reported as 4 µg/mL, the “MIC in combination, SET-M33” value (A. baumannii VA566/00 [1]; [16]) is reported as 4 µg/mL and the “MIC in combination, SET-M33” value (A. baumannii VA566/00 [1]; [17]) is reported as 4 µg/mL. The “MIC in combination, SET-M33” value (A. baumannii VA566/00 [1]; [18]) was 8 µg/mL, the “MIC in combination, SET-M33” value (A. baumannii N50 [2]; [15]) was 4 µg/mL and the “MIC in combination, SET-M33” value (A. baumannii N50 [2]; [16]) was 4 µg/mL. For the same molecule, the “MIC in combination, SET-M33” value (A. baumannii N50 [2]; [17]) was 8 µg/mL, the “MIC in combination, SET-M33” value (A. baumannii N50 [2]; [18]) was 8 µg/mL and the MIC values [3] was 4 to 32 µg/mL. The MIC (P. aeruginosa 854 [4]; 854) was 16 µg/mL (≈ 14.9 µM), the “MIC in combination, SET-M33” value (K. pneumoniae 044-R [5]; [15]) was 8 µg/mL and the “MIC in combination, SET-M33” value (K. pneumoniae 044-R [5]; [16]) was 8 µg/mL. The “MIC in combination, SET-M33” value (K. pneumoniae 044-R [5]; [17]) was 4 µg/mL, the “MIC in combination, SET-M33” value (K. pneumoniae 044-R [5]; [18]) was 16 µg/mL and the “MIC in combination, SET-M33” value (K. pneumoniae KKBO-4 [6]; [15]) was 8 µg/mL. For the same molecule, the “MIC in combination, SET-M33” value (K. pneumoniae KKBO-4 [6]; [16]) was 8 µg/mL, the “MIC in combination, SET-M33” value (K. pneumoniae KKBO-4 [6]; [17]) was 4 µg/mL and the “MIC in combination, SET-M33” value (K. pneumoniae KKBO-4 [6]; [18]) was 16 µg/mL. For the same molecule, the “MIC in combination, SET-M33” value (P. aeruginosa 854 [7]; [15]) was 8 µg/mL, the “MIC in combination, SET-M33” value (P. aeruginosa 854 [7]; [16]) was 8 µg/mL and the “MIC in combination, SET-M33” value (P. aeruginosa 854 [7]; [17]) was 8 µg/mL. The “MIC in combination, SET-M33” value (P. aeruginosa 854 [7]; [18]) was 8 µg/mL, the “MIC in combination, SET-M33” value (P. aeruginosa AV65 [8]; [15]) was 8 µg/mL and the “MIC in combination, SET-M33” value (P. aeruginosa AV65 [8]; [16]) was 4 µg/mL. For the same molecule, the “MIC in combination, SET-M33” value (P. aeruginosa AV65 [8]; [17]) was 8 µg/mL, the “MIC in combination, SET-M33” value (P. aeruginosa AV65 [8]; [18]) was 2 µg/mL and the “interaction in combination (ΣFIC interpretation)” value (“interaction in combination” below) ([9]; SET-M33 in combination with aztreonam, colistin-resistant strains of K. pneumoniae) was “synergistic activity”. For the same molecule, the “interaction in combination” value ([9]; SET-M33 in combination with ciprofloxacin, data not shown) was “Additivity”, the “interaction in combination” value ([9]; SET-M33 in combination with rifampin, colistin-resistant strains of K. pneumoniae) was “synergistic activity” and the “interaction in combination” value ([9]; SET-M33 in combination with tobramycin, one of the A. baumannii strains) was “Synergy”. For the same molecule, the “effect of combination on SET-M33 MIC values” ([9]; when a synergistic effect was present, e.g. with rifampin, aztreonam and tobramycin) was “moderately affected” and the “effect of combination on SET-M33 MIC values” ([9]; when the effect was additive or indifferent) was “not affected”.
In the case of C[C@H]1[C@H](NC(=O)/C(=N\OC(C)(C)C(=O)O)c2csc(N)n2)C(=O)N1S(=O)(=O)O [aztreonam], the MIC (A. baumannii VA566/00 [10]; VA566/00) is reported as 512 µg/mL (≈ 1180 µM), the MIC (P. aeruginosa AV65 [11]; agent alone, P. aeruginosa AV65 (XDR, IMP-13), read-out: MIC) is reported as 32 µg/mL (≈ 73.5 µM) and the “MIC in combination, ATB” value (A. baumannii VA566/00 [1]) is reported as 16 µg/mL. For the same molecule, the “MIC in combination, ATB” value (A. baumannii N50 [2]) was 32 µg/mL, the MIC (P. aeruginosa 854 [4]; Pseudomonas aeruginosa, 854) was 128 µg/mL (≈ 294 µM) and the “MIC in combination, ATB” value (P. aeruginosa 854 [7]) was 64 µg/mL. The “MIC in combination, ATB” value (P. aeruginosa AV65 [8]) was 1 µg/mL and the MIC (A. baumannii N50 [12]; N50) was 128 µg/mL (≈ 294 µM).
C[C@@H](O)[C@H]1C(=O)N2C(C(=O)O)=C(S[C@@H]3CN[C@H](C(=O)N(C)C)C3)[C@H](C)[C@H]12 [meropenem] was tested, and the MIC (A. baumannii VA566/00 [10]; VA566/00) was 512 µg/mL (≈ 1340 µM), the MIC (P. aeruginosa AV65 [11]; AV65) was 256 µg/mL (≈ 668 µM) and the “MIC in combination, ATB” value (A. baumannii VA566/00 [1]) was 4 µg/mL. The “MIC in combination, ATB” value (A. baumannii N50 [2]) was 64 µg/mL, the MIC (P. aeruginosa 854 [4]; Pseudomonas aeruginosa, 854) was 512 µg/mL (≈ 1340 µM) and the “MIC in combination, ATB” value (K. pneumoniae 044-R [5]) was 32 µg/mL. For the same molecule, the “MIC in combination, ATB” value (K. pneumoniae KKBO-4 [6]) was 32 µg/mL, the “MIC in combination, ATB” value (P. aeruginosa 854 [7]) was 16 µg/mL and the “MIC in combination, ATB” value (P. aeruginosa AV65 [8]) was 64 µg/mL. It also gave an MIC (A. baumannii N50 [12]; N50) of 256 µg/mL (≈ 668 µM), an MIC (K. pneumoniae 044-R [13]) of 64 µg/mL (≈ 167 µM) and an MIC (K. pneumoniae KKBO-4 [14]; [19]) of 64 µg/mL (≈ 167 µM).
In the case of CO[C@H]1/C=C/O[C@@]2(C)Oc3c(C)c(O)c4c(O)c(c(/C=N/N5CCN(C)CC5)c(O)c4c3C2=O)NC(=O)/C(C)=C\C=C\[C@H](C)[C@H](O)[C@@H](C)[C@@H](O)[C@@H](C)[C@H](OC(C)=O)[C@@H]1C [rifampin], the MIC (A. baumannii VA566/00 [10]; VA566/00) is reported as 256 µg/mL (≈ 311 µM), the MIC (P. aeruginosa AV65 [11]; AV65) is reported as 128 µg/mL (≈ 156 µM) and the “MIC in combination, ATB” value (A. baumannii VA566/00 [1]) is reported as 2 µg/mL. For the same molecule, the “MIC in combination, ATB” value (A. baumannii N50 [2]) was 4 µg/mL, the MIC (P. aeruginosa 854 [4]; [20]) was 32 µg/mL (≈ 38.9 µM) and the “MIC in combination, ATB” value (K. pneumoniae 044-R [5]) was 16 µg/mL. The “MIC in combination, ATB” value (K. pneumoniae KKBO-4 [6]) was 32 µg/mL, the “MIC in combination, ATB” value (P. aeruginosa 854 [7]) was 8 µg/mL and the “MIC in combination, ATB” value (P. aeruginosa AV65 [8]) was 64 µg/mL. It also gave an MIC (A. baumannii N50 [12]; [21]) of 64 µg/mL (≈ 77.8 µM), an MIC (K. pneumoniae 044-R [13]) of 64 µg/mL (≈ 77.8 µM) and an MIC (K. pneumoniae KKBO-4 [14]) of 128 µg/mL (≈ 156 µM).
For NC[C@H]1O[C@H](O[C@H]2[C@H](O)[C@@H](O[C@H]3O[C@H](CO)[C@@H](O)[C@H](N)[C@H]3O)[C@H](N)C[C@@H]2N)[C@H](N)C[C@@H]1O [tobramycin], the MIC (A. baumannii VA566/00 [10]; agent alone, A. baumannii VA566/00 (MDR, OXA-24), read-out: MIC) was 16 µg/mL (≈ 34.2 µM), the MIC (P. aeruginosa AV65 [11]; AV65) was 128 µg/mL (≈ 274 µM) and the “MIC in combination, ATB” value (A. baumannii VA566/00 [1]) was 4 µg/mL. For the same molecule, the “MIC in combination, ATB” value (A. baumannii N50 [2]) was 0.5 µg/mL, the MIC (P. aeruginosa 854 [4]; [20]) was 256 µg/mL (≈ 548 µM) and the “MIC in combination, ATB” value (K. pneumoniae 044-R [5]) was 16 µg/mL. For the same molecule, the “MIC in combination, ATB” value (K. pneumoniae KKBO-4 [6]) was 16 µg/mL, the “MIC in combination, ATB” value (P. aeruginosa 854 [7]) was 256 µg/mL and the “MIC in combination, ATB” value (P. aeruginosa AV65 [8]) was 128 µg/mL. For the same molecule, the MIC (A. baumannii N50 [12]; [21]) was 8 µg/mL (≈ 17.1 µM), the MIC (K. pneumoniae 044-R [13]) was 32 µg/mL (≈ 68.4 µM) and the MIC (K. pneumoniae KKBO-4 [14]; [19]) was 32 µg/mL (≈ 68.4 µM).
